In this assay the test system is Rattus norvegicus. The experiment in a line: Antihyperglycemic activity in normoglycemic male albino Sprague-Dawley rat assessed as improvement in sucrose tolerance at 100 mg/kg, po by Oral sucrose tolerance test. Format: functional.

In the case of `c1ccc(C2=NNC(c3ccc(OCc4csc(-c5ccccc5)n4)cc3)C2)cc1` (stereo not drawn), the Activity is 7.42%.

Take `COc1ccc(C2=NNC(c3ccc(OCc4csc(-c5ccccc5)n4)cc3)C2)cc1` (stereo not drawn): the Activity is reported as 0.85%.

Consider `Fc1ccc(C2=NNC(c3ccc(OCc4csc(-c5ccccc5)n4)cc3)C2)cc1` (stereo not drawn), for which the Activity turned out to be 10.4%.

As for `O=[N+]([O-])c1ccc(C2=NNC(c3ccc(OCc4csc(-c5ccccc5)n4)cc3)C2)cc1` (stereo not drawn), the Activity is 2.47%.

Consider `c1ccc(C2=NOC(c3ccc(OCc4csc(-c5ccccc5)n4)cc3)C2)cc1` (stereo not drawn), for which the Activity is 2.73%.

On to `COc1ccc(C2=NOC(c3ccc(OCc4csc(-c5ccccc5)n4)cc3)C2)cc1` (stereo not drawn), for which the Activity is reported as 8.37%.

Turning to `Fc1ccc(C2=NOC(c3ccc(OCc4csc(-c5ccccc5)n4)cc3)C2)cc1` (stereo not drawn), the Activity came to 4.88%.

For `O=[N+]([O-])c1ccc(C2=NOC(c3ccc(OCc4csc(-c5ccccc5)n4)cc3)C2)cc1` (stereo not drawn), the Activity worked out at 0.91%.

For `S=C1NC(c2ccccc2)=CC(c2ccc(OCc3csc(-c4ccccc4)n3)cc2)N1` (stereo not drawn), the Activity was found to be 0.07%.

Consider `COc1ccc(C2=CC(c3ccc(OCc4csc(-c5ccccc5)n4)cc3)NC(=S)N2)cc1` (stereo not drawn), for which the Activity is 1.05%.

As for `Fc1ccc(C2=CC(c3ccc(OCc4csc(-c5ccccc5)n4)cc3)NC(=S)N2)cc1` (stereo not drawn), the Activity was 8.22%.

`O=[N+]([O-])c1ccc(C2=CC(c3ccc(OCc4csc(-c5ccccc5)n4)cc3)NC(=S)N2)cc1` (stereo not drawn): the Activity turned out to be 7.04%.

Consider `CN(C)C(=N)NC(=N)N` [METFORMIN], for which the Activity was 14.1%.

The values above are taken from ChEMBL document CHEMBL3425487, “Synthesis of new thiazolylmethoxyphenyl pyrimidines and antihyperglycemic evaluation of the pyrimidines, analogues isoxazolines and pyrazolines” (2015).
